This note sets out measurements from PubChem BioAssay (NCI).

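96-well plates; 48 h exposure; 5 concentrations. Endpoints by linear interpolation between flanking doses. Not reached: highest tested concentration assigned. GI50: concentration for 50% inhibition of growth. TGI: total growth inhibition.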 Where only a bound is given, the exact number is not on record here.

Some test systems named below: K-562 leukemia; U251 CNS; CCRF-CEM leukemia; HT29 colon; SN12C renal; SK-MEL-2 melanoma; OVCAR-3 ovarian; SW-620 colon; NCI-H522 lung; MDA-MB-231 breast.
Assay in all cases: growth of human tumour cells (NCI), 48 h

Turning to `CC(C)(C)[Si](C)(C)OC1[C@@H](O[Si](C)(C)C(C)(C)C)[C@@H](CNC(=O)NC(=O)C(F)(F)F)O[C@H]1n1cnc2c(NC(=O)Nc3ccccc3)ncnc21` (stereo not given in full), the GI50 was 8.16 µM in the assay with K-562 leukemia; 7.4 µM with U251 CNS; 7.31 µM in the assay with CCRF-CEM leukemia; 4.33 µM in the assay with HT29 colon; 1.96 µM in the assay with SN12C renal; 9.37 µM with SK-MEL-2 melanoma. For the same compound, the GI50 in the assay on OVCAR-3 ovarian was 7.63 µM; in the assay with SW-620 colon, 7.53 µM; in the assay on NCI-H522 lung, 9.14 µM; in the assay with MDA-MB-231 breast it was 6.16 µM. In addition, the TGI in the assay with K-562 leukemia amounted to 24.7 µM; in the assay with U251 CNS, 14.5 µM; with CCRF-CEM leukemia, 41.6 µM; in the assay on HT29 colon, 11.1 µM; in the assay on SN12C renal it was 8.22 µM; in the assay with SK-MEL-2 melanoma it was 17.3 µM. For the same compound, the TGI in the assay on OVCAR-3 ovarian amounted to 14.5 µM; in the assay with SW-620 colon, 15.7 µM; in the assay with NCI-H522 lung, 16.6 µM; in the assay on MDA-MB-231 breast, 14.2 µM.
For `Cc1ccc(-c2nc(N3CCNCC3)c3oc(-c4ccc(C)cc4)nc3n2)cc1`, the GI50 in the assay with K-562 leukemia was 1.81 µM; in the assay with U251 CNS it was 1.83 µM; in the assay with CCRF-CEM leukemia, 1.49 µM; in the assay on HT29 colon, 1.88 µM; in the assay on SN12C renal it was 1.88 µM; in the assay on SK-MEL-2 melanoma it was > 41.6 µM. For the same compound, the GI50 with OVCAR-3 ovarian was 1.95 µM; with SW-620 colon, 1.8 µM; with NCI-H522 lung, 14.2 µM; with MDA-MB-231 breast, 1.77 µM. The TGI in the assay on K-562 leukemia was 4.51 µM; in the assay on U251 CNS it was 3.32 µM; in the assay on CCRF-CEM leukemia, 4.04 µM; in the assay with HT29 colon it was 3.42 µM; with SN12C renal it was 3.61 µM; in the assay on SK-MEL-2 melanoma it was > 60.9 µM. Further, the TGI in the assay with OVCAR-3 ovarian worked out at 3.87 µM; with SW-620 colon, 4.02 µM; in the assay with NCI-H522 lung, 36.1 µM; in the assay with MDA-MB-231 breast it was 3.45 µM.
Take `O=C1NC(=NCc2ccccc2)S/C1=C\c1ccc2ncccc2c1`: the GI50 with K-562 leukemia is > 25 µM; in the assay on U251 CNS it was > 25 µM; with CCRF-CEM leukemia it was > 17.1 µM; in the assay on HT29 colon, > 25 µM; in the assay with SN12C renal, > 25 µM; in the assay with SK-MEL-2 melanoma it was > 25 µM. Also, the GI50 with OVCAR-3 ovarian is > 25 µM; with SW-620 colon, > 25 µM; with NCI-H522 lung, > 15.5 µM; in the assay on MDA-MB-231 breast it was > 25 µM. Further, the TGI in the assay with K-562 leukemia, in the assay with U251 CNS, in the assay with CCRF-CEM leukemia, with HT29 colon, in the assay with SN12C renal and in the assay with SK-MEL-2 melanoma was > 25 µM in each case. In addition, the TGI in the assay on OVCAR-3 ovarian, in the assay on SW-620 colon, with NCI-H522 lung and with MDA-MB-231 breast was > 25 µM each time.
With `Cc1cc2c(cc1C)[n+](=O)c(C(=O)c1ccccc1)c(C(F)F)n2[O-]`, the GI50 in the assay with K-562 leukemia was 10.1 µM; in the assay with U251 CNS, 12.7 µM; with CCRF-CEM leukemia it was 5.12 µM; in the assay on HT29 colon, 17.2 µM; in the assay with SN12C renal, 25.7 µM; with SK-MEL-2 melanoma, 21.2 µM. In addition, the GI50 in the assay on OVCAR-3 ovarian was 18.4 µM; in the assay on SW-620 colon, 21.2 µM; in the assay with NCI-H522 lung, 7.82 µM; in the assay on MDA-MB-231 breast, 30.4 µM. The TGI was > 100 µM with K-562 leukemia; > 100 µM in the assay with U251 CNS; 29.6 µM in the assay on CCRF-CEM leukemia; > 100 µM with HT29 colon; > 100 µM with SN12C renal; 78.3 µM in the assay with SK-MEL-2 melanoma. For the same compound, the TGI was > 100 µM in the assay with OVCAR-3 ovarian, > 100 µM with SW-620 colon, 27.2 µM in the assay on NCI-H522 lung and > 100 µM in the assay with MDA-MB-231 breast.
Regarding `c1ccc(-c2n(Cc3ccc4ccccc4n3)cc[n+]2Cc2ccc3ccccc3c2)cc1`, the GI50 was 0.427 µM in the assay on K-562 leukemia; 0.923 µM with U251 CNS; 1.22 µM in the assay with CCRF-CEM leukemia; 0.979 µM in the assay on HT29 colon; 1.44 µM in the assay on SN12C renal; 1.2 µM in the assay on SK-MEL-2 melanoma. Further, the GI50 in the assay with OVCAR-3 ovarian is 0.766 µM; in the assay on SW-620 colon, 1.91 µM; in the assay with NCI-H522 lung, 0.706 µM; with MDA-MB-231 breast, 1.16 µM. The TGI in the assay on K-562 leukemia was 4.36 µM; with U251 CNS it was 3.25 µM; in the assay with CCRF-CEM leukemia it was 6.18 µM; with HT29 colon, 4.59 µM; in the assay with SN12C renal, 4.36 µM; in the assay with SK-MEL-2 melanoma it was 3.12 µM. The TGI in the assay with OVCAR-3 ovarian amounted to 2.63 µM; in the assay on SW-620 colon it was 7.4 µM; in the assay on NCI-H522 lung, 3.42 µM; with MDA-MB-231 breast, 3.32 µM.
As to `CC(=O)Nc1cc2ccc(=O)oc2cc1Cl`, the TGI in the assay on K-562 leukemia, with U251 CNS, in the assay on CCRF-CEM leukemia, in the assay on HT29 colon, in the assay with SN12C renal and with SK-MEL-2 melanoma was > 100 µM in each case. Further, the TGI in the assay on OVCAR-3 ovarian, in the assay with SW-620 colon, in the assay on NCI-H522 lung and in the assay on MDA-MB-231 breast was > 100 µM in each case.
Take `O=C(Nc1nn2c(-c3cc(C(F)(F)F)cc(C(F)(F)F)c3)nnc2s1)C1CCCC1`: the GI50 in the assay on K-562 leukemia was 0.488 µM; in the assay with U251 CNS it was 0.854 µM; with CCRF-CEM leukemia it was 0.459 µM; with HT29 colon, 1.11 µM; in the assay with SN12C renal, 0.454 µM; in the assay on SK-MEL-2 melanoma, 0.529 µM. In addition, the GI50 in the assay on OVCAR-3 ovarian was 0.441 µM; with SW-620 colon, 1.74 µM; in the assay on NCI-H522 lung it was 0.277 µM; in the assay with MDA-MB-231 breast it was 1.12 µM. Besides, the TGI in the assay on K-562 leukemia is > 100 µM; with U251 CNS it was > 100 µM; with CCRF-CEM leukemia, > 82.1 µM; in the assay on HT29 colon, > 32.5 µM; with SN12C renal, > 36.7 µM; with SK-MEL-2 melanoma it was 2.4 µM. The TGI with OVCAR-3 ovarian was > 37.8 µM; with SW-620 colon, > 100 µM; with NCI-H522 lung, 2.29 µM; in the assay on MDA-MB-231 breast, 4.01 µM.
For the compound `C=C1C(=O)O[C@H]2[C@H]1CC/C(CNC(=O)c1cc3ccccc3[nH]1)=C\CC[C@@]1(C)O[C@@H]21`, the GI50 with K-562 leukemia was 0.642 µM; in the assay on U251 CNS, 1.68 µM; in the assay with CCRF-CEM leukemia, 0.375 µM; with HT29 colon it was 1.11 µM; with SN12C renal, 1.79 µM; in the assay on SK-MEL-2 melanoma it was 1.88 µM. The GI50 with OVCAR-3 ovarian is 0.504 µM; in the assay with SW-620 colon it was 0.523 µM; in the assay on NCI-H522 lung it was 1.57 µM; in the assay on MDA-MB-231 breast it was 1.38 µM. The TGI with K-562 leukemia stood at 4.92 µM; with U251 CNS it was 3.26 µM; in the assay on CCRF-CEM leukemia it was 1.76 µM; in the assay on HT29 colon it was 3.09 µM; with SN12C renal, 4.85 µM; with SK-MEL-2 melanoma, 4.29 µM. In addition, the TGI was 1.69 µM with OVCAR-3 ovarian, 2.01 µM in the assay on SW-620 colon, 3.31 µM in the assay on NCI-H522 lung and 3.34 µM in the assay with MDA-MB-231 breast.
